Values after ≈ are worked out from the molar mass of the structure shown. Like-named read-outs stand apart in the source and are kept apart here.
Experiments:
Recombinant human Src = target: T1, Recombinant human Src (Homo sapiens, UniProt P12931); test: Enzymatic assay on isolated Src; format: biochemical
T1 construct: purchased Upstate (Lake Placid, N.Y.)
Source text: Recombinant human Src was purchased from Upstate (Lake Placid, N.Y.).

[1] = Microsomal stability assay
Recombinant human Abl = target: T2, Recombinant human Abl (Homo sapiens, UniProt P00519); test: Enzymatic assay on isolated Abl; format: biochemical; settings: mean of at least two experiments
T2 construct: purchased Upstate
Protocol: Recombinant human Abl was purchased from Upstate.
Activity was measured in a filter binding assay using an Abl specific peptide substrate (Abtide, Upstate).

U87 cells [2] = test: U87 xenograft; format: in vivo, mice
Protocol: Male CD1 nude mice (Charles River, Milan, Italy) were maintained under the guidelines established by University of L'Aquila, Medical School and Science and Technology School Board Regulations, complying with the Italian government regulations for the use of laboratory animals. Before any invasive manipulation, mice were anesthetized with a mixture of ketamine (25 mg/ml)/xylazine (5 mg/ml). Tumor grafts were obtained by injecting s.c. 1×10^6 U87 cells in 100 μL of 12 mg/mL Matrigel (Becton Dickinson, Franklin Lakes, N.J., USA). Mice were divided in four groups: treated with vehicle, treated with radiotherapy, treated with Si306 and treated with Si306 in combination with radiotherapy. […] At the endpoint, tumors were recovered and weighted. The tumor xenograft was irradiated once with 4Gy dose at first sign of palpable tumor mass.
Antibodies were purchased from Cell Signaling (Cell Signaling Technology, Inc.).

U87 cells [3] = test: Low density growth assay; format: cell-based, human; settings: 4Gy plus 1 μM or 10 μM Si306, 15 days
Protocol: U87 cells capacity for growth at clonal density, was evaluated by plating cells at density of 10 cells/cm^2 in 10% fetal bovine supplemented DMEM. After 2 weeks of culture, adherent cells were fixed with cold methanol, washed with PBS/BSA and air-dried. Adherent cells were stained with 0.5% crystal violet for 15 minutes at room temperature. The stained colonies were photomicrographed and analyzed by number and size with the public domain software ImageJ (by Wayne Rasband, http://rsb.info.nih.gov/ij/). Mean and SD values of at least three different experiments are shown.

T1 sequence (P12931 whole entry): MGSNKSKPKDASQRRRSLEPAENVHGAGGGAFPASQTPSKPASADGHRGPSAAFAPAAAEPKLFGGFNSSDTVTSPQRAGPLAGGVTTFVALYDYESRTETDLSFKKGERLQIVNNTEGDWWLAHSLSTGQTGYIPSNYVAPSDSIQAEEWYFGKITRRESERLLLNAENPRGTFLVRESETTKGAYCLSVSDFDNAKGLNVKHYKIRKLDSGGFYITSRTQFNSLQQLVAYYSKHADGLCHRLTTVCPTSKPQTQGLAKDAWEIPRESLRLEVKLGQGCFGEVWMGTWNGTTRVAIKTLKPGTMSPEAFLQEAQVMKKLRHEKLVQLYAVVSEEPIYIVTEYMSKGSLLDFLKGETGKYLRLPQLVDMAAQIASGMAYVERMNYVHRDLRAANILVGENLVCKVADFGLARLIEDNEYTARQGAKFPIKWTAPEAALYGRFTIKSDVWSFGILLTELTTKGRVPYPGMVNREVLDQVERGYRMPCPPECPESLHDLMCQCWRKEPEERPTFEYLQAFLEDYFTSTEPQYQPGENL
T2 sequence (P00519 whole entry): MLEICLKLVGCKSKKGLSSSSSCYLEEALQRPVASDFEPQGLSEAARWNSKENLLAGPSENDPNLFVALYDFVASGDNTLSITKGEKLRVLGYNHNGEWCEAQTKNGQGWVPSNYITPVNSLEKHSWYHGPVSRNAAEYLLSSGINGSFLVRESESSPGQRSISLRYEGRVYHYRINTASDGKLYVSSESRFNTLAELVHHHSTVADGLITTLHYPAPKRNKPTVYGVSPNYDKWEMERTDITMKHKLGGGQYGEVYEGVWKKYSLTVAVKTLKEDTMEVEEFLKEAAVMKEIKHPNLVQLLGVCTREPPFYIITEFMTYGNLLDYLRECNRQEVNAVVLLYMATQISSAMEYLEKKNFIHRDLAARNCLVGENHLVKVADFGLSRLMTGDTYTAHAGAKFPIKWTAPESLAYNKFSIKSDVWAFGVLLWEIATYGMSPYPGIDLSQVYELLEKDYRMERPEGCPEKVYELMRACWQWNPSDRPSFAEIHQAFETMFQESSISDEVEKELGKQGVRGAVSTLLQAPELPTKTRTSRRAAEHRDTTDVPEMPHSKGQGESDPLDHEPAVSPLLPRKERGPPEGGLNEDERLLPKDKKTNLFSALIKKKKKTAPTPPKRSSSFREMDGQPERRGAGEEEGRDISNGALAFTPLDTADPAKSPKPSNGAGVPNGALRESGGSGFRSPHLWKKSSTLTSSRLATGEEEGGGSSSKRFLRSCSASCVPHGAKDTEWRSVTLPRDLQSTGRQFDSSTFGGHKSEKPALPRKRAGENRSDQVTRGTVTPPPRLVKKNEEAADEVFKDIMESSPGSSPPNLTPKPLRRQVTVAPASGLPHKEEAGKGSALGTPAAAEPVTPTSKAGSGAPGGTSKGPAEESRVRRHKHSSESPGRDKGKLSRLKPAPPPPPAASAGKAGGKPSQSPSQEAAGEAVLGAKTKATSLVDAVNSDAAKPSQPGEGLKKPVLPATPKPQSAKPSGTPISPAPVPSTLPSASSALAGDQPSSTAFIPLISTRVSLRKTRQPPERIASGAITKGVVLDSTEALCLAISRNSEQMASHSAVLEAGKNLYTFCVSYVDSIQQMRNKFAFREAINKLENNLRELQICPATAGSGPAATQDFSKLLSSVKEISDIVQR

## ClC(Cn1ncc2c(Nc3cccc(Br)c3)nc(SCCN3CCOCC3)nc21)c1ccccc1 (centres unmarked) [Si306, N-(3-Bromophenyl)-1-(2-chloro-2-phenylethyl)-6-[(2-morpholin-4-ylethyl)thio]-1H-pyrazolo[3,4-d]pyrimidin-4-amine]
Recombinant human Src; mean of at least two experiments, read-out: Enzymatic Data (Ki, μM) c-Src
  Ki: 0.13 µM
Recombinant human Src; read-out: Ki c-Src
  Ki: ~0.1 µM
Water solubility assay; Table 6
  H2O Solubility: 3.7 µg/mL
Water solubility assay; Table 8, 20° C., 24 h
  H2O Sol.: 3.70 µg/mL
Water solubility assay; water, 20 °C, thermodynamic from solid
  solubility at 24 h: 6.61 µM (≈ 3.79 µg/mL)
[1]; percentage of unmodified drug, Table 8
  Metabolic Stab. %: 97.2%
[1]; percentage of unmodified parent drug, human liver microsomes 60 min
  Metabolic Stab.: 96%
Recombinant human Abl
  Ki: 0.12 µM
U87 cells [2]; 50 mg/kg every other day for 30 days, alone
  reduction of tumor weight vs CTR: about 50%
U87 cells [2]; immunohistochemistry of excised tumors
  myofibroblast content (alpha-SMA expression) in tumor masses: reduction of myofibroblast content
U87 cells [3]
  number of colonies, combination with radiotherapy: reduced significantly the number of colonies
